Laboratory results published in patent US11642366B2, “Methods for preventing a serious health consequence and/or tissue damage after exposure to ionizing radiation and/or chemotherapy” (GLYCOMIRA THERAPEUTICS, INC., priority 2018, dated 2023).

Columns and labels:
[1] = test system: ROM (radiation induced oral mucositis) in the tongue; test: Study (1): single dose x-ray irradiation induced ROM, necropsy and histology of the tongue; type: in vivo, mouse (BDF1 male); conditions: 30 mg/kg SQ once daily day -2 to 7
Text: Modified hyaluronan (referred to herein as GM-1111) used to treat the animals is a sulfated hyaluronan methylated at the primary C-6 hydroxyl position of an N-acetyl-glucosamine residue and having a molecular weight of approximately 5.5 kDa.
Approximately 7-8 weeks of old male BDF1 (B6D2F1) mice were purchased from Charles River Laboratories (MA). These animals were housed in a room with fully controlled environment (temperature, humidity, and light/dark cycle). The feed and water were freely accessible to all animals throughout the entire study period. All animals were acclimatized for one week prior to the irradiation and they were approximately 8-10 weeks old at the time of the study. The experimental protocol (16-07008) was approved by the University of Utah Institutional Animal Care and Use Committee (IACUC). […]
(§1) Body weights of the animals were measured every other day from 2 days prior to the first irradiation day (day 0). Clinical signs were monitored every day during the entire experimental period. […]
Histological observations were graded for each category and the sum of these grades was used to designate the severity of each sample. The resulting severity scores from all irradiation groups were analyzed with Kruskal-Wallis test followed by Dunnett-type multiple comparison test using nparcomp package. […]

myeloperoxidase (MPO) = test: Study (1): tissue concentrations of myeloperoxidase (MPO) in tongue homogenate by ELISA; type: in vivo, mouse (BDF1 male); conditions: 30 mg/kg SQ once daily day -2 to 7; 20 Gy; day 8; vehicle/irradiated 50%
Text: Prior to the x-ray irradiation, all animals except the healthy control group were gently guided into a restrainer for short durations. This behavioral training was held once daily for two days and it was designed to reduce potential stresses on the animals during the once daily irradiation session. For head-only irradiation, the restrainers containing the animals were shielded with a lead block that had rectangular holes to expose the head. X-rays were generated by RS2000 Biological Research Irradiator (Rad Source Technologies, GA) with parameters set as 160 kV/25 mA. For study (1), the animals were divided into 4 groups (10 mice for each group)—vehicle (phosphate buffered saline) treated healthy, vehicle treated ROM, GM-1111 treated ROM, and HA treated ROM. […]
as §1
All tongue samples were thawed on ice prior to homogenization. […] The total protein concentration of the supernatant was measured for each sample using the Pierce™ Protein Assay kit. Tissue concentrations of IL-6 and myeloperoxidase (MPO) were then determined with commercially available ELISA kits: IL-6 (BioLegend, CA) and MPO (R&D Systems, MN). […]

Substance: Hyaluronic acid [HA]
- Overall effect against ROM (necropsy, MPO, histology) ([1]; 20 Gy): did not show any measurable therapeutic benefits
- Ulcerative lesions in the tongue at necropsy (Toluidine Blue staining) ([1]; 20 Gy head-only x-ray on day 0, necropsy day 8): severe ulcerative lesions in the tongue similar to the vehicle treated animals
- Animals with higher than normal range of MPO in the tongue (myeloperoxidase (MPO)): about 70%
